Common to all, as to type: in vivo
Test [1] concerns Cabbage Looper (Trichoplusia ni, TRIPNI). The test can be described thus: Bioassay on Cabbage Looper (CL), 128-well diet tray assay. The settings on record: Trichoplusia ni; Species CL (Cabbage Looper); read-out: CL (Biological Results, rating). The method in brief: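 Mortality of second instar larvae exposed to diet coated with 50 μg/cm^2 compound (acetone-water 90:10 vehicle, dried); 25° C., 5–7 days.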

In test [2] the test system is Yellow Fever Mosquito (Aedes aegypti, AEDSAE). The test can be described thus: Bioassay on Yellow Fever Mosquito (YFM), 96-well plate larval assay. The settings on record: Species YFM (Yellow Fever Mosquito). Here is the method: Certain molecules disclosed in this document were tested against YFM using procedures described in the following paragraph. In the reporting of the results, the “GPA & YFM Rating Table” was used (See Table Section).
Master plates containing 400 μg of a molecule dissolved in 100 μL of dimethyl sulfoxide (DMSO) (equivalent to a 4000 ppm solution) are used. A master plate of assembled molecules contains 15 μL per well. To this plate, 135 μL of a 90:10 water/acetone mixture is added to each well. A robot is programmed to dispense 15 μL aspirations from the master plate into an empty 96-well shallow plate (“daughter” plate). There are 6 reps (“daughter” plates) created per master. The created “daughter” plates are then immediately infested with YFM larvae.
The day before plates are to be treated, mosquito eggs are placed in Millipore water containing liver powder to begin hatching (4 g. into 400 mL). After the “daughter” plates are created using the robot, they are infested with 220 μL of the liver powder/larval mosquito mixture (about 1 day-old larvae). After plates are infested with mosquito larvae, a non-evaporative lid is used to cover the plate to reduce drying. Plates are held at room temperature for 3 days prior to grading. After 3 days, each well is observed and scored based on mortality. The results are indicated in the table entitled “Table ABC: Biological Results” (See Table Section).

Test [3] concerns Beet Armyworm (Spodoptera exigua, LAPHEG). The test can be described thus: Bioassay on Beet Armyworm (BAW), 128-well diet tray assay. The following applies: Species BAW (Beet Armyworm), read-out: BAW (Biological Results, rating). A digest of the protocol:
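In a 128-well format, eight wells per compound received a surface dose of 50 μg/cm^2 on artificial diet. After drying, each well got one to five second instar larvae, held at 25° C. with 14:10 photoperiod. Mortality percentages after five to seven days were averaged.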

SMILES strings stand for the structures.

On to `CN(C(=O)c1cc(NC(=O)[C@H]2[C@H](c3ccc(C(F)(F)F)cc3)C2(Cl)Cl)ccc1Cl)c1ccc(F)cc1` (relative stereo) [F82, trans-2-Chloro-5-(2,2-dichloro-3-(4-(trifluoromethyl)phenyl)cyclopropane-1-carboxamido)-N-(4-fluorophenyl)-N-methylbenzamide], for which the pest or weed control at 50 µg/cm2 in test [1] and in test [3] was 50 to 100% throughout. Besides, the “YFM (Biological Results, rating)” value in test [2] is on record as “B (More than 0-Less than 80)”.

As for `O=C(Nc1c(F)cccc1F)c1cc(NC(=O)[C@H]2[C@H](c3ccc(C(F)(F)F)cc3)C2(Cl)Cl)ccc1Cl` (relative stereo) [F83, trans-2-Chloro-5-(2,2-dichloro-3-(4-(trifluoromethyl)phenyl)cyclopropane-1-carboxamido)-N-(2,6-difluorophenyl)benzamide], the pest or weed control at 50 µg/cm2 in test [1] and in test [3] was 50 to 100% throughout. The “YFM (Biological Results, rating)” value in test [2] is given as “A (80-100)”.

Turning to `CN(C(=O)c1cc(NC(=O)[C@H]2[C@H](c3cc(C(F)(F)F)cc(C(F)(F)F)c3)C2(Cl)Cl)ccc1Cl)c1ccc(F)cc1` (relative stereo) [F85, trans-5-(3-(3,5-Bis(trifluoromethyl)phenyl)-2,2-dichlorocyclopropane-1-carboxamido)-2-chloro-N-(4-fluorophenyl)-N-methylbenzamide], the pest or weed control at 50 µg/cm2 in test [1] and in test [3] was 50 to 100% each time. In addition, the “YFM (Biological Results, rating)” value in test [2] is listed as “A (80-100)”.

Regarding `CN(C(=O)c1cc(NC(=O)[C@H]2[C@H](c3cc(Cl)cc(C(F)(F)F)c3)C2(Cl)Cl)ccc1Cl)c1ccc(F)cc1` (relative stereo) [F88, trans-2-Chloro-5-(2,2-dichloro-3-(3-chloro-5-(trifluoromethyl)phenyl)cyclopropane-1-carboxamido)-N-(4-fluorophenyl)-N-methylbenzamide], the pest or weed control at 50 µg/cm2 in test [1] and in test [3] was 50 to 100% throughout. Also, the “YFM (Biological Results, rating)” value in test [2] is listed as “B (More than 0-Less than 80)”.

For the compound `CN(C(=O)c1cc(NC(=O)[C@H]2[C@H](c3cc(Br)cc(Br)c3)C2(Cl)Cl)ccc1Cl)c1ccc(F)cc1` (relative stereo) [F91, trans-2-Chloro-5-(2,2-dichloro-3-(3,5-dibromophenyl)cyclopropane-1-carboxamido)-N-(4-fluorophenyl)-N-methylbenzamide], the pest or weed control at 50 µg/cm2 in test [1] and in test [3] was 50 to 100% in each case. Moreover, in test [2], the “YFM (Biological Results, rating)” value is “B (More than 0-Less than 80)”.

On to `O=C(Nc1ccc(Cl)c(C(=O)N(CC(F)(F)F)c2ccc(F)cc2)c1)[C@H]1[C@H](c2cc(Cl)cc(Cl)c2)C1(Cl)Cl` (relative stereo) [F100, trans-2-Chloro-5-(2,2-dichloro-3-(3,5-dichlorophenyl)cyclopropane-1-carboxamido)-N-(4-fluorophenyl)-N-(2,2,2-trifluoroethyl)benzamide], for which the pest or weed control at 50 µg/cm2 in test [1] and in test [3] was 50 to 100% each time. Besides, the “YFM (Biological Results, rating)” value in test [2] is reported as “A (80-100)”.

In the case of `Cc1cc(Cl)cc([C@H]2[C@H](C(=O)Nc3ccc(Cl)c(C(=O)Nc4ccc(F)cc4)c3)C2(Cl)Cl)c1` (relative stereo) [F116, trans-2-Chloro-5-(2,2-dichloro-3-(3-chloro-5-methylphenyl)cyclopropane-1-carboxamido)-N-(4-fluorophenyl)benzamide], the pest or weed control at 50 µg/cm2 in test [1] and in test [3] was 50 to 100% throughout. The “YFM (Biological Results, rating)” value in test [2] is recorded as “A (80-100)”.

Take `Cc1cc(Cl)cc([C@H]2[C@H](C(=O)Nc3ccc(Cl)c(C(=O)Nc4c(F)cccc4F)c3)C2(Cl)Cl)c1` (relative stereo) [F118, trans-2-Chloro-5-(2,2-dichloro-3-(3-chloro-5-methylphenyl)cyclopropane-1-carboxamido)-N-(2,6-difluorophenyl)benzamide]: the pest or weed control at 50 µg/cm2 in test [1] and in test [3] was 50 to 100% each time. Moreover, in test [2], the “YFM (Biological Results, rating)” value is “A (80-100)”.

Regarding `O=C(Nc1ccc(F)cc1)c1cc(NC(=O)[C@H]2[C@H](c3cc(Cl)cc(Cl)c3)C2(Br)Br)ccc1Cl` (relative stereo) [F122, trans-2-Chloro-5-(2,2-dibromo-3-(3,5-dichlorophenyl)cyclopropane-1-carboxamido)-N-(4-fluorophenyl)benzamide], the pest or weed control at 50 µg/cm2 in test [1] and in test [3] was 50 to 100% each time. Further, the “YFM (Biological Results, rating)” value in test [2] is recorded as “B (More than 0-Less than 80)”.

As to `Cc1cc([C@H]2[C@H](C(=O)Nc3ccc(Cl)c(C(=O)Nc4ccc(F)cc4)c3)C2(Cl)Cl)cc(Cl)c1Cl` (relative stereo) [F123, trans-2-Chloro-5-(2,2-dichloro-3-(3,4-dichloro-5-methylphenyl)cyclopropane-1-carboxamido)-N-(4-fluorophenyl)benzamide], the pest or weed control at 50 µg/cm2 in test [1] and in test [3] was 50 to 100% throughout. For the same compound, the “YFM (Biological Results, rating)” value in test [2] is listed as “B (More than 0-Less than 80)”.

Take `O=C(Nc1ccc(F)cc1)c1cc(NC(=O)[C@H]2[C@H](c3cc(Cl)cc(Cl)c3)C2(Cl)Cl)ccc1OC(F)(F)F` (relative stereo) [F135, trans-5-(2,2-Dichloro-3-(3,5-dichlorophenyl)cyclopropane-1-carboxamido)-N-(4-fluorophenyl)-2-(trifluoromethoxy)benzamide]: the pest or weed control at 50 µg/cm2 in test [1] and in test [3] was 50 to 100% throughout. Moreover, the “YFM (Biological Results, rating)” value in test [2] was “A (80-100)”.

As to `O=C(Nc1ccc(F)cc1)c1cc(Cl)cc(NC(=O)[C@H]2[C@H](c3cc(Cl)cc(Cl)c3)C2(Cl)Cl)c1` (relative stereo) [F136, trans-3-Chloro-5-(2,2-dichloro-3-(3,5-dichlorophenyl)cyclopropane-1-carboxamido)-N-(4-fluorophenyl)benzamide], the pest or weed control at 50 µg/cm2 in test [1] and in test [3] was 50 to 100% each time. The “YFM (Biological Results, rating)” value in test [2] was “A (80-100)”.

Regarding `O=C(Nc1c(F)cccc1F)c1cc(NC(=O)[C@H]2[C@H](c3ccc(F)c(Cl)c3)C2(Cl)Cl)ccc1Cl` (relative stereo) [F161, trans-2-Chloro-5-(2,2-dichloro-3-(3-chloro-4-fluorophenyl)cyclopropane-1-carboxamido)-N-(2,6-difluorophenyl)benzamide], the pest or weed control at 50 µg/cm2 in test [1] and in test [3] was 50 to 100% each time. Further, the “YFM (Biological Results, rating)” value in test [2] was “A (80-100)”.

`O=C(Nc1c(F)cccc1F)c1cc(NC(=O)[C@H]2[C@H](c3cc(Cl)cc(Br)c3)C2(Cl)Cl)ccc1Cl` (relative stereo) [F164, trans-5-(3-(3-Bromo-5-chlorophenyl)-2,2-dichlorocyclopropane-1-carboxamido)-2-chloro-N-(2,6-difluorophenyl)benzamide]: the pest or weed control at 50 µg/cm2 in test [1] and in test [3] was 50 to 100% throughout. The “YFM (Biological Results, rating)” value in test [2] is “A (80-100)”.

The values above are taken from US10219516B2, “Molecules having pesticidal utility, and intermediates, compositions, and processes, related thereto” (priority 2015, dated 2019).
